Experimental data: US20110152166A1, “METHOD OF MODULATION OF PROTEIN PHOSPHORYLATION-DEPENDENT CONFORMATIONAL TRANSITIONS WITH LOW MOLECULAR WEIGHT COMPOUNDS” (priority 2006, published 2011)
Ends that are not written are not given here.

Columns and labels:
Format in all cases: biochemical
GST-PDK1 [Arg131Lys] = target: T1, GST-PDK1 [Arg131Lys] (Homo sapiens, UniProt O15530, R131K); test: PDK1 activity assay with T308tide
T1 construct: different protein constructs, comprising the full length protein or the catalytic domain alone; made in house; host or cells: HEK293 cells (pEBG-2T-PDK1 mutant)
T1 sequence (O15530 1-556 R131K): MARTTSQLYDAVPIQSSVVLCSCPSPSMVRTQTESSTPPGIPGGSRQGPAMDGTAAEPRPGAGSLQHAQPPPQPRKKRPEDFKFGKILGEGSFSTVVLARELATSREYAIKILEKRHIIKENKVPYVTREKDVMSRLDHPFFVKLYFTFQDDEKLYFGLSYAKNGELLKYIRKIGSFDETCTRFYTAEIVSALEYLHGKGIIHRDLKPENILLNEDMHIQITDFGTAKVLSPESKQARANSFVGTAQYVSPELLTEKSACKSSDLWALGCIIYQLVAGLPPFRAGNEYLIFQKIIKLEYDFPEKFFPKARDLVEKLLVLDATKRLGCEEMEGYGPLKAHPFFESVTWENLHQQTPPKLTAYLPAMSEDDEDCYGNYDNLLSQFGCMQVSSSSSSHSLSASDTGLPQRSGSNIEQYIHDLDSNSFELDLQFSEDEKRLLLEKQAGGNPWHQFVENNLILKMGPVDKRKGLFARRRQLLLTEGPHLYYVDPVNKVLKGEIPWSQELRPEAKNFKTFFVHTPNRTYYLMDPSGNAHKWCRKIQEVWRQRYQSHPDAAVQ

PKA = target: T2, PKA (Homo sapiens, UniProt P17612); test: AGC kinase panel activity assay (Kemptide); conditions: for PKA (%) activity: 1% DMSO = 100%
T2 construct: purchased Sigma
Description: (§1) Protein kinase activity tests were performed essentially as previously described (Balendran et al., 2000; Biondi et al., 2000; Biondi et al., 2001). Substrates used were either MBP (for PKCζ or polypeptides (Crosstide for PKB, S6K, SGK and PRK2; T308tide for PDK1, and Kemptide for PKA). PKA (Sigma) was measured in the presence of 100 μM cAMP. Alternatively, assays were performed in a 96 well format, aliquots spotted on p81 phosphocellulose papers (Whatmann), washed in 0.01% phosphoric acid, dried, and then exposed and analysed using Phospholmager technology (Storm, Molecular Dynamics). Activity measurements were performed in duplicates with less than 10% difference between duplicate pairs. Experiments were repeated at least twice, although most of the experiments were repeated multiple times, with similar results.
(§2) Activity assays for each kinase were performed as described in Materials and Methods in the presence of 1% DMSO (100%). Except PKA, all protein kinases were produced as a GST-fusion. S6K1, PKBα, SGK mutants used were S6K1-T2-[Thr412Glu], PKBa[Ser473Asp] and ΔN-SGK[Ser422Asp].

ΔN-SGK[Ser422Asp] = target: T3, ΔN-SGK[Ser422Asp] (Homo sapiens, UniProt O00141, S422D); test: AGC kinase panel activity assay (Crosstide); conditions: for SGK1 (%) activity: 1% DMSO = 100%
T3 construct: made in house; host or cells: HEK293
T3 sequence (O00141 61-431 S422D limits assumed): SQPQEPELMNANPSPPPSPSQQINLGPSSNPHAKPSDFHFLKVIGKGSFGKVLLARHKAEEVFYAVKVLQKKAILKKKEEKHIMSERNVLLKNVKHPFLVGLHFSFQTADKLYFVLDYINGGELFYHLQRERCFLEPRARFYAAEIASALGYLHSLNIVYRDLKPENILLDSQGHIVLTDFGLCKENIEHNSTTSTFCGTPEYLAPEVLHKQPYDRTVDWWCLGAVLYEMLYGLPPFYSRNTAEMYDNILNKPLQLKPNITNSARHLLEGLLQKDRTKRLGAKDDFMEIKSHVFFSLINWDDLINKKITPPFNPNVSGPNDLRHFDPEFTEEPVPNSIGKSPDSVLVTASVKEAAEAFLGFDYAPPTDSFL
Description: as §1, §2

S6K1-T2-[Thr412Glu] = target: T4, S6K1-T2-[Thr412Glu] (Homo sapiens, UniProt P23443, T412E); test: AGC kinase panel activity assay (Crosstide); conditions: for S6K1 (%) activity: 1% DMSO = 100%
T4 construct: made in house; host or cells: HEK293
T4 sequence (P23443 1-421 T412E limits assumed): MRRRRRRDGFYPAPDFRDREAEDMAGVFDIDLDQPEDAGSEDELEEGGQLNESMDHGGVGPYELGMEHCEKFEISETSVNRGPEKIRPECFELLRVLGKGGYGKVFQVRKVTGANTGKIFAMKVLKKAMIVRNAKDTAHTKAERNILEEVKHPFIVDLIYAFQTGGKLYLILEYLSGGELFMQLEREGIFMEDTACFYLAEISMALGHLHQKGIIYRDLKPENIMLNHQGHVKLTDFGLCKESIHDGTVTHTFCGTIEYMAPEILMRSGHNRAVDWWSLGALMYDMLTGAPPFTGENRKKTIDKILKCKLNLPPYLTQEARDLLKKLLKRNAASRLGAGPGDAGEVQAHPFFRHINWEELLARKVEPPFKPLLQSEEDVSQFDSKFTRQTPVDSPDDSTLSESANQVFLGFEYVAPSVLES
Description: as §1, §2

PKBa[Ser473Asp] = target: T5, PKBa[Ser473Asp] (Homo sapiens, UniProt P31749, S473D); test: AGC kinase panel activity assay (Crosstide)
T5 construct: made in house; host or cells: HEK293
T5 sequence (P31749 whole entry S473D): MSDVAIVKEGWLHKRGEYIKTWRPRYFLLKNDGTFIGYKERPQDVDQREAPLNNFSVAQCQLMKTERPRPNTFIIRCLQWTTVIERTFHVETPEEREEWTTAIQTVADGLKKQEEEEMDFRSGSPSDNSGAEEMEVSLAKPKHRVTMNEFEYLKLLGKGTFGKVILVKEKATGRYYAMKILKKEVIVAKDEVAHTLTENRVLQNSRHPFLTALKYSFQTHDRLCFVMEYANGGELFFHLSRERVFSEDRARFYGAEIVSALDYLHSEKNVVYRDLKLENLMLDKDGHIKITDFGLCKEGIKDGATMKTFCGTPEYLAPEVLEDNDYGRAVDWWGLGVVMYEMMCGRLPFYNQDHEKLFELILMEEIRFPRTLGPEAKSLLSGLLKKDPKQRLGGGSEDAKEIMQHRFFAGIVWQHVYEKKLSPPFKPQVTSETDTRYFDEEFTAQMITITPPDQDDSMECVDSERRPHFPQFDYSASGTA
Description: as §1, §2

PRK2 = target: T6, PRK2 (Homo sapiens, UniProt Q16513); test: AGC kinase panel activity assay (Crosstide); conditions: for PRK2 (%) activity: 1% DMSO = 100%
T6 construct: made in house; host or cells: HEK293
T6 sequence (Q16513 501-984): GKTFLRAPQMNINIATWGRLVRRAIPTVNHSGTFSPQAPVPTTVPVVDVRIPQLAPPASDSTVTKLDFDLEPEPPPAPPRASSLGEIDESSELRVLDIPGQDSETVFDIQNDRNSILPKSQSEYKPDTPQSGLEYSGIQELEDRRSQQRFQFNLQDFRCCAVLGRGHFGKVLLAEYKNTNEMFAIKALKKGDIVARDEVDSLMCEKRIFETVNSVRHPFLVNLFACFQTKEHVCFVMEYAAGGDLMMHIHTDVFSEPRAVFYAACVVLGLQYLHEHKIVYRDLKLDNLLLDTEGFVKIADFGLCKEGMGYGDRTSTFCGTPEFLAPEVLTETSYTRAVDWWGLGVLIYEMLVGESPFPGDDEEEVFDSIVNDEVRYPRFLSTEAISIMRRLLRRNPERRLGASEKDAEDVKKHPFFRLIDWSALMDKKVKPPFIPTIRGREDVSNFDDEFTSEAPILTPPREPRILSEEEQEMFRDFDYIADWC
Description: as §1, §2

| Compound | AC50 (GST-PDK1 [Arg131Lys]) | Max. activity (GST-PDK1 [Arg131Lys]) | effect on PKA activity (in words) (PKA; 20 μM) | PKA (%) activity (PKA; 20 μM compound) | PKA (%) activity (PKA; 200 μM compound) | effect on SGK1 activity (in words) (ΔN-SGK[Ser422Asp]; 20 μM) | SGK1 (%) activity (ΔN-SGK[Ser422Asp]; 20 μM compound) | SGK1 (%) activity (ΔN-SGK[Ser422Asp]; 200 μM compound) | effect on S6K activity (in words) (S6K1-T2-[Thr412Glu]; 20 μM) | S6K1 (%) activity (S6K1-T2-[Thr412Glu]; 20 μM compound) | S6K1 (%) activity (S6K1-T2-[Thr412Glu]; 200 μM compound) | effect on PKBa/AKT1 activity (in words) (PKBa[Ser473Asp]; 20 μM) | activity at 20 µM (PKBa[Ser473Asp]; 20 μM compound, 1% DMSO = 100%, read-out: PKBα (%) activity) | activity at 200 µM (PKBa[Ser473Asp]; 200 μM compound, 1% DMSO = 100%, read-out: PKBα (%) activity) | effect on PRK2 activity (in words) (PRK2; 20 μM) | PRK2 (%) activity (PRK2; 20 μM compound) | PRK2 (%) activity (PRK2; 200 μM compound) | PKBα (%) activity (PKBa[Ser473Asp]; 20 μM compound, 1% DMSO = 100%) | PKBα (%) activity (PKBa[Ser473Asp]; 200 μM compound, 1% DMSO = 100%) |
| --- | --- | --- | --- | --- | --- | --- | --- | --- | --- | --- | --- | --- | --- | --- | --- | --- | --- | --- | --- |
| O=C(O)CSC(CC(=O)c1ccc(Cl)cc1)c1ccccc1 (centres unmarked) [Compound 1] | 51 ± 15 µM | 1.13 ± 0.09 U/mg | no significant effect | 100% | 94% | no significant effect | 97% | 61% | no significant effect | 109% | 110% | no significant effect | 89% | 85% | no significant effect | 103% | 110% | – | – |
| COC(=O)CSC(CC(=O)c1ccc(Cl)cc1)c1ccccc1 (centres unmarked) [Compound 2] | – | – | – | 109% | 103% | – | 89% | 92% | – | 109% | 120% | – | – | – | – | 106% | 89% | 92% | 106% |
| REPRILSEEEQEMFRDFDYIADWC [PIFtide, reference compound] | 0.13 ± 0.02 µM | 0.77 ± 0.02 U/mg | – | – | – | – | – | – | – | – | – | – | – | – | – | – | – | – | – |
